The values that follow come from paper PMC3069126 (Journal of natural products, 2011).

One may read the inhibition as the share of the control response that was lost under treatment.

One experiment relates to Hepa1c1c7 cells. Description: Cytotoxicity assay. The format is cell-based. The note with it: Hepa-1c1c7, read-out: inhibition of Hepa1c1c7.
The test system of the next experiment is MCF-7 cells. As to the kind of experiment: Cytotoxicity assay. Particulars: Homo sapiens, MCF7, read-out: inhibition of MCF-7. The format is cell-based.
The next experiment has as its system ovine QR2. As to the kind of experiment: Ultrafiltration LC-MS binding assay for QR2.
Experiment [1] addresses T1, quinone reductase 2 (QR2) (Homo sapiens, UniProt P16083).
T1 sequence (P16083 1-231): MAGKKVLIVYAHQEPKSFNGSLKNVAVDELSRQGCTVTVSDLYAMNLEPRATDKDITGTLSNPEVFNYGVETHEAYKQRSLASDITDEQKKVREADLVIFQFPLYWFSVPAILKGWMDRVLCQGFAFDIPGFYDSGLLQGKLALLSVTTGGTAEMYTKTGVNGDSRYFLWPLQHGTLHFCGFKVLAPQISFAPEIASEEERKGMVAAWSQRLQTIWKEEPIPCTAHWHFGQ
As to the kind of experiment: QR2 assay.

Regarding `CC(=O)O[C@H]1C(=O)[C@@]2(C)[C@H]([C@H](OC(=O)c3ccccc3)[C@]3(O)C[C@H](OC(=O)[C@H](O)[C@@H](NC(=O)c4ccccc4)c4ccccc4)C(C)=C1C3(C)C)[C@]1(OC(C)=O)CO[C@@H]1C[C@@H]2O` [paclitaxel], the values for the inhibition at 23.4 µM in the experiment on Hepa1c1c7 cells and in the experiment on MCF-7 cells were 57% and 64%, respectively. As to `CC[C@]1(O)C[C@@H]2CN(CCc3c([nH]c4ccccc34)[C@@](C(=O)OC)(c3cc4c(cc3OC)N(C)[C@H]3[C@@](O)(C(=O)OC)[C@H](OC(C)=O)[C@]5(CC)C=CCN6CC[C@]43[C@@H]65)C2)C1` [vinblastine], the inhibition at 49.4 µM with Hepa1c1c7 cells amounted to 90%; in the experiment on MCF-7 cells, 74%. On to `COc1c(-c2ccc(O)cc2)oc2cc(O[C@@H]3O[C@H](CO[C@@H]4O[C@@H](CO)[C@H](O)[C@H]4O)[C@@H](O)[C@H](O)[C@H]3O)cc(O)c2c1=O` [Compound 10, 4′, 5,7-trihydroxy-3-methoxyflavone-7-O-α-L-arabinofuranosyl (1→6)-β-D-glucopyranoside], for which the “response in LC-MS ultrafiltration binding assay with QR2” value in the experiment with ovine QR2 was “positive response”. Consider `COc1c(-c2ccc(O)cc2)oc2cc(O[C@@H]3O[C@H](CO)[C@@H](O)[C@H](O)[C@H]3O)cc(O)c2c1=O` [Compound 14, 4′, 5,7-trihydroxy-3-methoxyflavone-7-O-β-D-glucopyranoside], for which the “response in LC-MS ultrafiltration binding assay with QR2” value in the experiment on ovine QR2 is “positive response”.

Turning to `O=c1c(O[C@@H]2O[C@H](CO)[C@@H](O)[C@H](O)[C@H]2O)c(-c2ccc(O)c(O)c2)oc2cc(O)cc(O)c12` [Compound 15, quercetin-3-O-β-D-glucoside], the “ability to inhibit QR2 (in words)” value in experiment [1] is “able to inhibit QR2”.
